Assay results from patent US4746736A, “Carbapenem antibiotics” (priority 1986, dated 1988).
Converted amounts (≈) assume the structure as drawn. Where two headings read alike, the source gives them in different places.

Experiments:
Type in all cases: cell-based
K. pneumoniae A-9664 = experiment: In vitro MIC by tube dilution, K. pneumoniae A-9664; conditions: Klebsiella pneumoniae, A9664, read-out: MIC
P. mirabilis A-9900 = experiment: In vitro MIC by tube dilution, P. mirabilis A-9900; conditions: Proteus mirabilis, A9900, P. mirabilis A-9900; read-out: MIC
S. marcescens A20019 = experiment: In vitro MIC by tube dilution, S. marcescens A20019; conditions: Serratia marcescens, read-out: MIC
E. coli A15119 = experiment: In vitro MIC by tube dilution, E. coli A15119; conditions: Escherichia coli, read-out: MIC
S. pneumoniae A-9585 = experiment: In vitro MIC by tube dilution, S. pneumoniae A-9585; conditions: Streptococcus pneumoniae, A9585, S. pneumoniae A-9585; read-out: MIC
E. cloacae A-9656 = experiment: In vitro MIC by tube dilution, E. cloacae A-9656; conditions: Enterobacter cloacae, A9656, E. cloacae A-9656; read-out: MIC
K. pneumoniae A20468 = experiment: In vitro MIC by tube dilution, K. pneumoniae A20468; conditions: Klebsiella pneumoniae, read-out: MIC
[1] = system: S. aureus A-9606 (Pen-res.); experiment: In vitro MIC by tube dilution, S. aureus A-9606 (Pen-res.); conditions: Staphylococcus aureus, S. aureus A-9606 (Pen-res); read-out: MIC
P. aeruginosa A-9843A = experiment: In vitro MIC by tube dilution, P. aeruginosa A-9843A; conditions: Pseudomonas aeruginosa, A9843A, P. aeruginosa A-9843a; read-out: MIC
S. aureus A-9537 = experiment: In vitro MIC by tube dilution, S. aureus A-9537; conditions: Staphylococcus aureus, read-out: MIC
E. coli A20341-1 = experiment: In vitro MIC by tube dilution, E. coli A20341-1; conditions: Escherichia coli, A203411, read-out: MIC
E. cloacae A-9659 = experiment: In vitro MIC by tube dilution, E. cloacae A-9659; conditions: Enterobacter cloacae, A9659, E. cloacae A-9659; read-out: MIC
P. rettgeri A22424 = experiment: In vitro MIC by tube dilution, P. rettgeri A22424; conditions: Providencia rettgeri, read-out: MIC
S. pyogenes A9604 = experiment: In vitro MIC by tube dilution, S. pyogenes A9604; conditions: Streptococcus pyogenes, A9604, S. pyogenes A-9604; read-out: MIC
P. morganii A15153 = experiment: In vitro MIC by tube dilution, P. morganii (M. morganii) A15153; conditions: Morganella morganii, read-out: MIC
S. faecalis A20688 = experiment: In vitro MIC by tube dilution, S. faecalis A20688; conditions: Enterococcus faecalis, A20688, S. faecalis A20688; read-out: MIC
P. aeruginosa A21213 = experiment: In vitro MIC by tube dilution, P. aeruginosa A21213; conditions: Pseudomonas aeruginosa, read-out: MIC
[2] = A9537, S. aureus A-9537 +50% serum
[3] = A9537, S. aureus A-9537, no serum

SMILES | MIC (K. pneumoniae A-9664) [µg/mL] | MIC (P. mirabilis A-9900) [µg/mL] | MIC (S. marcescens A20019) [µg/mL] | MIC (S. pneumoniae A-9585) [µg/mL] | MIC (E. cloacae A-9656) [µg/mL] | MIC (K. pneumoniae A20468; A20468, K. pneumoniae A20468) [µg/mL] | MIC [1] [µg/mL] | MIC (P. aeruginosa A-9843A) [µg/mL] | MIC (S. aureus A-9537; [2]) [µg/mL] | MIC (S. aureus A-9537; [3]) [µg/mL] | MIC (E. coli A20341-1) [µg/mL] | MIC (E. cloacae A-9659) [µg/mL] | MIC (P. rettgeri A22424; A22424, P. rettgeri A22424) [µg/mL] | MIC (S. pyogenes A9604) [µg/mL] | MIC (E. coli A15119; E. coli A15119) [µg/mL] | MIC (K. pneumoniae A20468; K. pneumoniae A20468) [µg/mL] | MIC (P. morganii A15153; M. morganii A15153) [µg/mL] | MIC (S. faecalis A20688) [µg/mL] | MIC (P. morganii A15153; A15153, M. morganii A15153) [µg/mL] | further results
Cc1scc(CSC2=C(C(=O)[O-])N3C(=O)[C@H]([C@@H](C)O)[C@H]3C2)[n+]1C [Example 8, 3-(2-Methyl-N-methylthiazole-4-yl-methanethio)-6α-[1-(R)-hydroxyethyl]-7-oxo-1-azabicyclo(3.2.0)hept-ene-2-carboxylate] | 0.03 (≈ 0.0846 µM) | 0.13 (≈ 0.367 µM) | 0.06 (≈ 0.169 µM) | 0.002 (≈ 0.00564 µM) | 0.06 (≈ 0.169 µM) | 0.13 (≈ 0.367 µM) | 0.03 (≈ 0.0846 µM) | 1 (≈ 2.82 µM) | 0.03 (≈ 0.0846 µM) | 0.008 (≈ 0.0226 µM) | 0.03 (≈ 0.0846 µM) | 0.13 (≈ 0.367 µM) | 0.13 (≈ 0.367 µM) | 0.002 (≈ 0.00564 µM) |  |  |  |  |  | MIC (E. coli A15119; A15119, E. coli A15119): 0.016 µg/mL (≈ 0.0451 µM)
Cc1c(CSC2=C(C(=O)[O-])N3C(=O)[C@H]([C@@H](C)O)[C@H]3C2)ccc[n+]1C [Example 14, 3-(2-Methyl-N-methylpyridine-3-yl-methanethio)-6α-[1-(R)-hydroxyethyl]-7-oxo-1-azabicyclo(3.2.0)hept-2-ene-2-carboxylate] | 0.03 (≈ 0.0861 µM) | 0.016 (≈ 0.0459 µM) | 0.016 (≈ 0.0459 µM) |  | 0.03 (≈ 0.0861 µM) |  | 0.016 (≈ 0.0459 µM) | 8 (≈ 23 µM) | 0.03 (≈ 0.0861 µM) | 0.008 (≈ 0.023 µM) | 0.008 (≈ 0.023 µM) | 0.03 (≈ 0.0861 µM) | 0.06 (≈ 0.172 µM) |  | 0.008 (≈ 0.023 µM) | 0.03 (≈ 0.0861 µM) | 0.03 (≈ 0.0861 µM) | 0.13 (≈ 0.373 µM) |  | 
C[C@@H](O)[C@H]1C(=O)N2C(C(=O)[O-])=C(SCc3ccc[n+](C)c3)C[C@H]12 [Example 3, 3-(N-Methylpyridine-3-yl-methanethio)-6α-[1-(R)-hydroxyethyl]-7-oxo-1-azabicyclo(3.2.0)hept-2-ene-2-carboxylate] | 0.06 (≈ 0.179 µM) | 0.13 (≈ 0.389 µM) | 0.016 (≈ 0.0478 µM) | 0.002 (≈ 0.00598 µM) | 0.13 (≈ 0.389 µM) | 0.06 (≈ 0.179 µM) | 0.016 (≈ 0.0478 µM) | 2 (≈ 5.98 µM) | 0.016 (≈ 0.0478 µM) | 0.016 (≈ 0.0478 µM) | 0.016 (≈ 0.0478 µM) | 0.13 (≈ 0.389 µM) |  | 0.002 (≈ 0.00598 µM) | 0.03 (≈ 0.0897 µM) |  |  |  | 0.13 (≈ 0.389 µM) | 
C[C@@H](O)[C@H]1C(=O)N2C(C(=O)[O-])=C(SCc3n(C)cc[n+]3C)C[C@H]12 [Example 9, 3-(N,N'-Dimethylimidazole-2-yl-methanethio)-6α-[1-(R)-hydroxyethyl]-7-oxo-1-azabicyclo(3.2.0)hept-2-ene-2-carboxylate] | 0.016 (≈ 0.0474 µM) | 0.016 (≈ 0.0474 µM) | 0.016 (≈ 0.0474 µM) |  | 0.03 (≈ 0.0889 µM) |  |  | 2 (≈ 5.93 µM) |  | 0.004 (≈ 0.0119 µM) | 0.004 (≈ 0.0119 µM) | 0.03 (≈ 0.0889 µM) | 0.06 (≈ 0.178 µM) |  | 0.008 (≈ 0.0237 µM) | 0.03 (≈ 0.0889 µM) | 0.03 (≈ 0.0889 µM) | 0.13 (≈ 0.385 µM) |  | MIC (P. aeruginosa A21213; A21213, P. aeruginosa A21213): 0.13 µg/mL (≈ 0.385 µM)
C[C@@H](O)[C@H]1C(=O)N2C(C(=O)[O-])=C(SCc3n[n+](C)nn3C)C[C@H]12 [Example 20, (1'R,5R,6S) 3-[(1,3-dimethyl-5-tetrazolium)-methylthio]-6-(1-hydroxyethyl)-7-oxo-1-azabicyclo[3.2.0]hept-2-ene-2-carboxylate] |  |  |  | 0.06 (≈ 0.177 µM) |  |  | > 125 | 32 (≈ 94.3 µM) | 2 (≈ 5.89 µM) |  |  | 8 (≈ 23.6 µM) | 8 (≈ 23.6 µM) | 0.13 (≈ 0.383 µM) |  |  |  |  | 8 (≈ 23.6 µM) | 
C[C@@H](O)[C@H]1C(=O)N2C(C(=O)[O-])=C(SCc3cn(C)n[n+]3C)C[C@H]12 [Example 15 "A", 3-[4-(N,N-dimethyl-1,2,3-triazolium)methylthio]-6α-[1-(R)-hydroxyethyl]-7-oxo-1-azabicyclo(3.2.0)hept-2-ene-2-carboxylate] | 0.008 (≈ 0.0236 µM) | 0.008 (≈ 0.0236 µM) | 0.008 (≈ 0.0236 µM) |  | 0.016 (≈ 0.0473 µM) |  | 0.004 (≈ 0.0118 µM) | 0.5 (≈ 1.48 µM) | 0.03 (≈ 0.0887 µM) | 0.03 (≈ 0.0887 µM) | 0.004 (≈ 0.0118 µM) | 0.016 (≈ 0.0473 µM) |  |  | 0.004 (≈ 0.0118 µM) | 0.008 (≈ 0.0236 µM) | 0.03 (≈ 0.0887 µM) | 0.13 (≈ 0.384 µM) |  | MIC (P. aeruginosa A21213; P. aeruginosa A21213): 0.03 µg/mL (≈ 0.0887 µM); MIC (P. rettgeri A22424; P. rettgeri A22424): 0.03 µg/mL (≈ 0.0887 µM)
